Measurements published in ChEMBL document CHEMBL1156734, “Discovery of 1,3-disubstituted-1H-pyrrole derivatives as potent melanin-concentrating hormone receptor 1 (MCH-R1) antagonists” (Bioorg Med Chem Lett, 2008).

Columns and labels:
[1] = target: T1, Melanin-concentrating hormone receptor 1 (Homo sapiens, UniProt Q99705); assay: Displacement of [125I]MCH from human MCHR1 expressed in HEK293 cells; type: cell-based
[2] = target: T1, Melanin-concentrating hormone receptor 1; assay: Antagonist activity at human MCHR1 expressed in HEK293 cells assessed as [35S]GTPgammaS accumulation; type: functional, cell-based
Mus musculus = assay: Intrinsic clearance in C57BL mouse at 20 uM/kg, iv; type: ADME, organism-based; details: in vivo
[3] = Fraction unbound in human plasma; type: ADME, cell-free
Liver microsomes = assay: Metabolic stability in human liver microsomes; type: ADME, Microsome

T1 sequence (Q99705 whole entry): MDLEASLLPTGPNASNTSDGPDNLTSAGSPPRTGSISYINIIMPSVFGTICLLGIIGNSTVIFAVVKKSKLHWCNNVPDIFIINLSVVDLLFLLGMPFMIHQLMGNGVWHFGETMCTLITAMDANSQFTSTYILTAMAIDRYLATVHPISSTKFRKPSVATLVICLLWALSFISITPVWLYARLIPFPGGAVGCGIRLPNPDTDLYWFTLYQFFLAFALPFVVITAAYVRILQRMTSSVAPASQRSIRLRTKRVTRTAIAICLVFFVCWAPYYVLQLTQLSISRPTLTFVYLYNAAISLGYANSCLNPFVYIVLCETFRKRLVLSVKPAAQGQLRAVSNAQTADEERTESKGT

SMILES | IC50 [1] | IC50 [2] | also measured
Fc1ccc(-c2cc(C3CCN(Cc4ccn(-c5ccc(C(F)(F)F)cc5)c4)CC3)no2)cc1 | 25 nM | 67 nM | 
O=C(COc1cccc(Cl)c1)NC1CCN(Cc2ccc3ccccc3c2)CC1 | 41 nM | 104 nM | 
O=C(COc1ccc(F)c(F)c1)NCC1CN(Cc2ccn(-c3ccc(C(F)(F)F)cc3)c2)CCO1 (stereo not given) | 269 nM |  | 
Cc1cc(CN2CCC(NC(=O)COc3cccc(Cl)c3)CC2)c(C)n1-c1ccccc1 | 9650 nM |  | 
O=C(COc1cccc(Cl)c1)NC1CCN(Cc2ccc3c(c2)OCCO3)CC1 | 903 nM |  | 
Cc1cccc(OCC(=O)NCC2CN(Cc3ccn(-c4ccc(C(C)(C)C)cn4)c3)C2)c1 | 169 nM |  | 
O=C(COc1cccc(Cl)c1)NC1CCN(Cc2ccn(C3CCCC3)c2)CC1 | > 33000 nM |  | 
O=C(COc1cccc(Cl)c1)NC1CN(Cc2ccn(-c3ccc(C(F)(F)F)cc3)c2)C1 | 42 nM | 73 nM | 
O=C(COc1cccc(Cl)c1)NC1CCN(Cc2ccc(-c3ccc(OC(F)(F)F)cc3)o2)CC1 | 78 nM | 103 nM | 
O=C(COc1cccc(Cl)c1)NC1CCN(Cc2ccn(-c3ccccc3)c2)CC1 | 710 nM |  | 
O=C(COc1cccc(Cl)c1)N1CCC(Nc2ccn(-c3ccc(C(F)(F)F)cn3)c2)CC1 | 1250 nM |  | 
O=C(COc1ccc(F)c(F)c1)N[C@H]1CC[C@H](Nc2ccn(-c3ccc(C(F)(F)F)cc3)c2)C1 | 2260 nM |  | 
O=C(COc1cccc(Cl)c1)NC1CCN(Cc2cn(-c3ccc(C(F)(F)F)cc3)cn2)CC1 | 2140 nM |  | 
Fc1ccc(-c2c[nH]c(C3CCN(Cc4ccn(-c5ccc(C(F)(F)F)cc5)c4)CC3)n2)cc1 | 20 nM | 122 nM | 
Fc1ccc(-c2cc(C3CCN(Cc4ccn(-c5ccc(C(F)(F)F)cc5)c4)CC3)on2)cc1 | 66 nM |  | 
O=C(COc1cccc(Cl)c1)NC1CCN(Cc2ccn(-c3ccc(C(F)(F)F)cc3)c2)CC1 |  |  | CL (Mus musculus): 41 mL/min/kg; fraction unbound [3]: 0.012; clearance (Liver microsomes): 38 µL/min/mg
O=C(COc1ccc(F)c(F)c1)N[C@H]1CC[C@@H](Nc2ccn(-c3ccc(C(F)(F)F)cc3)c2)CC1 | 104 nM |  | 
O=C(COc1cccc(Cl)c1)N[C@H]1[C@@H]2CN(Cc3ccn(-c4ccc(C(F)(F)F)cc4)c3)C[C@@H]21 | 111 nM |  | 
O=C(COc1cccc(Cl)c1)NCC1CCN(Cc2ccn(-c3ccc(C(F)(F)F)cn3)c2)CC1 | 313 nM |  | 

Now from value to compound, other results behind:

IC50 [1] | IC50 [2] | SMILES | also measured
636 nM |  | FC(F)(F)c1ccc(-n2ccc(CN3CCC(NCCOc4cccc(Cl)c4)CC3)c2)cc1 | 
26 nM | 71 nM | Cc1c(-c2ccccc2)[nH]c(=O)n1C1CCN(Cc2ccn(-c3ccc(C(F)(F)F)cc3)c2)CC1 | 
52 nM | 145 nM | N#Cc1ccc(-n2ccc(CN3CCC(NC(=O)COc4cccc(Cl)c4)CC3)c2)cc1 | 
3050 nM |  | O=C(COc1cccc(Cl)c1)NC1CCCN(Cc2ccn(-c3ccc(C(F)(F)F)cn3)c2)C1 (stereo not given) | 
2340 nM |  | O=C(COc1cccc(Cl)c1)NC1CCN(Cc2ccc3[nH]ccc3c2)CC1 | 
347 nM |  | O=C(COc1cccc(Cl)c1)NC1CCN(Cc2csc(-c3ccc(Cl)cc3)n2)CC1 | 
48 nM | 92 nM | O=C(COc1cccc(Cl)c1)NC1CCN(Cc2ccn(-c3ccc(C(F)(F)F)cn3)c2)CC1 | 
113 nM |  | Fc1ccc(-c2ncc(C3CCN(Cc4ccn(-c5ccc(C(F)(F)F)cc5)c4)CC3)[nH]2)cc1 | 
43 nM | 117 nM | CC(c1ccn(-c2ccc(C(F)(F)F)cc2)c1)N1CCC(NC(=O)COc2cccc(Cl)c2)CC1 (stereo not given) | 
31 nM | 15 nM | O=C(COc1cccc(Cl)c1)NC1CCN(Cc2ccn(-c3ccc(OC(F)(F)F)cc3)c2)CC1 | CL (Mus musculus): 34 mL/min/kg; fraction unbound [3]: 0.032; clearance (Liver microsomes): 21 µL/min/mg
37 nM | 58 nM | Fc1ccc(-c2cc(C3CCN(Cc4ccn(-c5ccc(C(F)(F)F)cc5)c4)CC3)n[nH]2)cc1 | 
100 nM | 90 nM | COc1ccc(-n2ccc(CN3CCC(NC(=O)COc4cccc(Cl)c4)CC3)c2)cc1 | 
927 nM |  | O=C(COc1cccc(Cl)c1)NC1CCN(Cc2ccc(-c3ccc(C(F)(F)F)cn3)o2)CC1 | 
303 nM |  | O=C(COc1cccc(Cl)c1)NCC1CCCN(Cc2ccn(-c3ccc(C(F)(F)F)cn3)c2)C1 (stereo not given) | 
1500 nM |  | O=C(COc1cccc(Cl)c1)NC1CCN(Cc2ccn(-c3ccon3)c2)CC1 | 
109 nM |  | CN(C(=O)COc1cccc(Cl)c1)C1CCN(Cc2ccn(-c3ccc(C(F)(F)F)cc3)c2)CC1 | 
82 nM | 505 nM | O=C(COc1cccc(Cl)c1)NC1CCN(Cc2cc3c(cc2Cl)OCO3)CC1 | 
297 nM |  | O=C(COc1cccc(Cl)c1)NC1CCN(Cc2cccc(-n3cccc3)c2)CC1 | 
92 nM | 804 nM | O=C(NC1CCN(Cc2ccc(Cl)c(Cl)c2)CC1)c1csc([N+](=O)[O-])c1 | 
29 nM | 48 nM | O=C(COc1ccc(F)c(F)c1)NC1CCN(Cc2ccn(-c3ccc(C(F)(F)F)cc3)c2)C1 (stereo not given) | 
120 nM |  | O=C(COc1cccc(Cl)c1)NC1CCN(Cc2ccc(-c3ccccn3)cc2)CC1 | 
